Laboratory results taken from patent US20240050577A1, “CDK INHIBITORS AND PHARMACEUTICAL USES THEREOF” (RISEN (SUZHOU) PHARMA TECH CO., LTD., priority 2022, published 2024).

Legend:
Assay type in all cases: cell-based
CDK4 protein = biological target: T1, CDK4 protein (Homo sapiens, UniProt P11802); test: CDK4 protein degradation in OVCAR3 cells (Western blot); conditions: 24 h; for DC50: read-out: DC50 CDK4 (half-maximum degradation concentration); for percent CDK4 protein degradation at 0.05 µM: OVCAR-3, 50 nM test compound, read-out: level of CDK4 protein degradation
T1 construct: host or cells: OVCAR3
T1 sequence (P11802 whole entry): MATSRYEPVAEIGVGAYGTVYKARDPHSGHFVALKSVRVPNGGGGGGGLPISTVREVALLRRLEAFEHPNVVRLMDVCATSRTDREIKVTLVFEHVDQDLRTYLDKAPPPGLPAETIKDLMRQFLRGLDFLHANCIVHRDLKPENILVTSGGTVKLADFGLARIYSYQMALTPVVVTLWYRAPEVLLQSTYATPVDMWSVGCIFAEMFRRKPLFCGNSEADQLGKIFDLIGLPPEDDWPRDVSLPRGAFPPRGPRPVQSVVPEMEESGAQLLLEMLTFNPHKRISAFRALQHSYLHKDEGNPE
Protocol: (§1) OVCAR3 (Cobioer, CBP60294) cell line of exponential growth phase was inoculated on a 6-well cell culture plate (Corning, 3516) according to 3E5/well scheme; and the plate was incubated overnight in a 5%-carbon dioxide incubator at 37° C. The next day, the test compound was dissolved in DMSO (Sigma, RNBF5902) to prepare a 10-mM concentration stock solution. The stock solution was diluted with complete medium, giving working solutions of different concentrations. Working solution was added into the corresponding wells of the orifice plate. The plate was placed in a 5% carbon dioxide incubator, set at 37° C., and incubated for 24 h. The plate was removed from the incubator, and the cells were washed twice with precooled PBS (Gibco, 14190250), followed by addition of 40 μL RIPA lysis buffer (containing protease inhibitor (Invitrogen™, AM2696)) to each well. Adherent cells were scraped off with a cell scraper, and the cell lysate was transferred to a 1.5 mL centrifuge tube, and the tube was placed on ice for 30 minutes. After completion of cell lysis, the tube was centrifugated for 10 min at 4° C., 14000 rpm. The supernatant was transferred into a new 1.5-mL centrifuge tube, and the new tube was placed on ice, followed by measurement of the protein concentration with BCA protein detection kit (Thermo Fisher, 23225). A mixture of cell lysate (40 μL) and loading buffer (10 μL, 5×SDS (Beyotime, P0015L)) was placed into a water bath at 95° C. for 10 min to denature the protein. The denatured protein sample, 30 μL/well, was added into a corresponding well of 4-20% Bis-Tris gel (Kingsley, M00657). The initial voltage was adjusted to 80-V and run for 30 min, followed by voltage increased to 120 V, and run for another 40 min, until the strip had run to the appropriate position. After electrophoresis, iBlot2 (Life Technologies, IB21001) was used to transfer the film under the condition of 20 V and 7 min. At the end of film transfer, 5% skimmed milk powder was sealed at room temperature for 2 h, and then TBST (Thermo Scientific, 28360) buffer solution was used to rinse for three times, 10 minutes each time. Skimmed milk powder (5%) was diluted with the first antibody in the appropriate proportion, and the working solution of the first antibody was prepared and incubated overnight at 4° C. After the incubation of the first antibody, the membrane was washed three times at room temperature with TBST buffer solution, 10 minutes each time; and the second antibody was incubated with 5% skimmed milk powder at room temperature for 1 h. After washing the film for three times with TBST, ECL color developing solution (Thermofisher 34095) was added, and an image was taken on a Biorad Chemi Doc gel imager. The band gray value was analyzed (Image Lab).
(§2) Symbols of “−”, “+”, “++”, and “+++” indicate that the degradation level of CDK protein induced by test compound was 10% or less, 11 to 30%, 31 to 60%, and greater than 60%, respectively.
(§3) Half-maximum degradation concentrations (DC50s) of test compounds were calculated using GraphPad Prism and their values are shown in Table 4. Symbols of “++++”, “+++”, “++”, “+” and “−” represent DC50s equal or less than 10 nM, 11-50 nM, 51-100 nM, 101-200 nM, and >200 nM, respectively.

CDK2 protein = biological target: T2, CDK2 protein (Homo sapiens, UniProt P24941); test: CDK2 protein degradation in OVCAR3 cells (Western blot); conditions: 24 h; for level of CDK2 protein degradation: 50 nM test compound; for DC50: read-out: DC50 CDK2 (half-maximum degradation concentration)
T2 construct: host or cells: OVCAR3
Protocol: as §1, §2, §3

CDK1 protein = biological target: T3, CDK1 protein (Homo sapiens, UniProt P06493); test: CDK1 protein degradation in OVCAR3 cells (Western blot); conditions: 24 h; for DC50: read-out: DC50 CDK1 (half-maximum degradation concentration); for percent CDK1 protein degradation at 0.05 µM: OVCAR-3, 50 nM test compound, read-out: level of CDK1 protein degradation
T3 construct: host or cells: OVCAR3
T3 sequence (P06493 whole entry): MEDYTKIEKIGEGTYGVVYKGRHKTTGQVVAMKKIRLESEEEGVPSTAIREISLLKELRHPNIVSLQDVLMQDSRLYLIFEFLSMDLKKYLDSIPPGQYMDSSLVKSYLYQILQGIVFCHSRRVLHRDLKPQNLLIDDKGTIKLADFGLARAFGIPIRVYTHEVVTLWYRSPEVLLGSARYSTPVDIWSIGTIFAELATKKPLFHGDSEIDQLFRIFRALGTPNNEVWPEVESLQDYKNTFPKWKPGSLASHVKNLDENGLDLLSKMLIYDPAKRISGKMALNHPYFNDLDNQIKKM
Protocol: as §1, §2, §3

OVCAR3 cells = test: Cell proliferation study (Cell Titer Glo, 72 h); conditions: Homo sapiens, OVCAR-3, luminescence, read-out: IC50, inhibitory effect on cellular proliferation
CDK6 protein = biological target: T4, CDK6 protein (Homo sapiens, UniProt Q00534); test: CDK6 protein degradation in OVCAR3 cells (Western blot); conditions: 24 h; for DC50: read-out: DC50 CDK6 (half-maximum degradation concentration); for percent CDK6 protein degradation at 0.05 µM: OVCAR-3, 50 nM test compound, read-out: level of CDK6 protein degradation
T4 construct: host or cells: OVCAR3
T4 sequence (Q00534 whole entry): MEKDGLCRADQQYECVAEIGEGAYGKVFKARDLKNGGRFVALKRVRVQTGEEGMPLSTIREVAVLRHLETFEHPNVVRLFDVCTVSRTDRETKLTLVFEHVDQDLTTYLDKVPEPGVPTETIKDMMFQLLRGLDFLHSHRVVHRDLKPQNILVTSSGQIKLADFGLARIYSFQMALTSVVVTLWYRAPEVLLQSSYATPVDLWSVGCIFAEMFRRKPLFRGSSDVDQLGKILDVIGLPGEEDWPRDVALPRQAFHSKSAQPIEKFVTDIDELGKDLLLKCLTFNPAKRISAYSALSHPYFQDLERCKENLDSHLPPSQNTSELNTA
Protocol: as §1, §2, §3

DC50 (CDK4 protein)	percent CDK4 protein degradation at 0.05 µM (CDK4 protein)	level of CDK2 protein degradation (CDK2 protein)	DC50 (CDK2 protein)	DC50 (CDK1 protein)	percent CDK1 protein degradation at 0.05 µM (CDK1 protein)	IC50 (OVCAR3 cells)	DC50 (CDK6 protein)	percent CDK6 protein degradation at 0.05 µM (CDK6 protein)	SMILES
> 200 nM	≤ 10%	+++ (greater than 60%)	101 to 200 nM	11 to 50 nM	31 to 60%	< 100 nM	> 200 nM	> 60%	Cc1nc2c(F)cc(-c3nc(NC4CCN(S(=O)(=O)C5CCN(CC6CC7(C6)CN(c6cc8c(cc6F)C(=O)N(C6CCC(=O)NC6=O)C8=O)C7)CC5)CC4)ncc3F)cc2n1C(C)C (stereo not drawn) [Compound 88]
> 200 nM	≤ 10%	+++ (greater than 60%)	> 200 nM	> 200 nM	> 60%	< 100 nM	> 200 nM	> 60%	Cc1nc2c(F)cc(-c3nc(Nc4ccc(S(=O)(=O)C5CCN(C6CCN(C7CN(c8cc9c(cc8F)C(=O)N(C8CCC(=O)NC8=O)C9=O)C7)CC6)CC5)cc4)ncc3F)cc2n1C(C)C (stereo not drawn) [Compound 64]
> 200 nM	≤ 10%	++ (31 to 60%)	101 to 200 nM	101 to 200 nM	31 to 60%	< 100 nM	101 to 200 nM	> 60%	Cc1nc2c(F)cc(-c3nc(NC4CCN(S(=O)(=O)C5CCN(C6CCN(C7CN(c8cc9c(cc8F)C(=O)N(C8CCC(=O)NC8=O)C9=O)C7)CC6)CC5)CC4)ncc3F)cc2n1C(C)C (stereo not drawn) [Compound 83]
> 200 nM	≤ 10%	+++ (greater than 60%)	< 10 nM	< 10 nM	> 60%	< 100 nM	> 200 nM	> 60%	C[C@@]1(O)CCC[C@H]1n1c(=O)c(C(F)F)cc2cnc(NC3CCN(S(=O)(=O)C4CCN(CC5CCN(C6CN(c7cc8c(cc7F)C(=O)N(C7CCC(=O)NC7=O)C8=O)C6)CC5)CC4)CC3)nc21 (stereo partly drawn) [Compound 37]
> 200 nM	≤ 10%	+++ (greater than 60%)	< 10 nM	< 10 nM	> 60%	< 100 nM	< 10 nM	> 60%	Cc1nc2c(F)cc(-c3nc(NC4CCN(S(=O)(=O)C5CCN(C6CN(C7CCN(c8cc9c(cc8F)C(=O)N(C8CCC(=O)NC8=O)C9=O)CC7)C6)CC5)CC4)ncc3F)cc2n1C(C)C (stereo not drawn) [Compound 79]

SMILES	DC50 (CDK4 protein)	percent CDK4 protein degradation at 0.05 µM (CDK4 protein)	level of CDK2 protein degradation (CDK2 protein)	DC50 (CDK2 protein)	DC50 (CDK1 protein)	percent CDK1 protein degradation at 0.05 µM (CDK1 protein)	IC50 (OVCAR3 cells)	DC50 (CDK6 protein)	percent CDK6 protein degradation at 0.05 µM (CDK6 protein)
C[C@@]1(O)CCC[C@H]1n1c(=O)ccc2cnc(NC3CCN(S(=O)(=O)C4CCN(CC5CCN(C6CN(c7cc8c(cc7F)C(=O)N(C7CCC(=O)NC7=O)C8=O)C6)CC5)CC4)CC3)nc21 (stereo partly drawn) [Compound 95]	> 200 nM	31 to 60%	++ (31 to 60%)	51 to 100 nM	11 to 50 nM	> 60%	101 to 1000 nM	< 10 nM	> 60%
